In article PMC11255275, “Structural insights into the triple agonism at GLP-1R, GIPR and GCGR manifested by retatrutide” (Cell Discovery, 2024):

Legend:
Format in all cases: cell-based
GCGR = target: T1, GCGR (Homo sapiens, UniProt P47871); test: cAMP accumulation, wild-type GCGR; conditions: HEK-293T, 40 min, TR-FRET, mean ± S.E.M.
T1 construct: expressed in transfected cells; host or cells: HEK-293T
Method: (§1) HEK-293T cells were maintained at 37°C in 5% CO2 incubator and seeded onto 6-well cell […]
(§2) culture plates before transfection. After overnight culture, the cells were transiently transfected […]
(§3) with various constructs using Lipofectamine 2000 transfection reagent (Invitrogen). After 24 h, […]
(§4) the transfected cells were seeded onto 384-microtiter plates at a density of 3,000 cells per well […]
(§5) in stimulation buffer (HBSS supplemented with 5 mM HEPES, 0.1% (w/v) casein and 0.5 mM […]
(§6) 3-isobutyl-1-methylxanthine). Different concentrations of retatrutide in stimulation buffer were […]
(§7) added, and the stimulation lasted for 40 min. The reaction was stopped by addition of cAMP […]
(§8) detection buffer containing Eu-cAMP tracer and ULight-anti-cAMP. Plates were then incubated for […]
(§9) 60 min at RT. Time-resolved FRET signals were measured at 620 nm and 665 nm, respectively, by […]
(§10) an EnVision multilabel plate reader (PerkinElmer). Data were analyzed in GraphPad PRISM 9.5 […]
(§11) and all values were normalized to that of the wild-type (WT). […]
(§12) accumulation was measured in wild-type (WT) and single-point mutated GLP-1R, GIPR or […]
(§13) of the WT and dose-response curves were analyzed using a three-parameter logistic equation. […]
(§14) curves were analyzed using a three-parameter logistic equation to obtain pEC50 and Emax values. […]
(§15) way ANOVA was used to determine statistical difference. N.D., values that could not be determined due […]

GIPR = target: T2, GIPR (Homo sapiens, UniProt P48546); test: cAMP accumulation, wild-type GIPR; conditions: HEK-293T, 40 min, TR-FRET, mean ± S.E.M.
T2 construct: expressed in transfected cells; host or cells: HEK-293T
T2 sequence (P48546 22-466): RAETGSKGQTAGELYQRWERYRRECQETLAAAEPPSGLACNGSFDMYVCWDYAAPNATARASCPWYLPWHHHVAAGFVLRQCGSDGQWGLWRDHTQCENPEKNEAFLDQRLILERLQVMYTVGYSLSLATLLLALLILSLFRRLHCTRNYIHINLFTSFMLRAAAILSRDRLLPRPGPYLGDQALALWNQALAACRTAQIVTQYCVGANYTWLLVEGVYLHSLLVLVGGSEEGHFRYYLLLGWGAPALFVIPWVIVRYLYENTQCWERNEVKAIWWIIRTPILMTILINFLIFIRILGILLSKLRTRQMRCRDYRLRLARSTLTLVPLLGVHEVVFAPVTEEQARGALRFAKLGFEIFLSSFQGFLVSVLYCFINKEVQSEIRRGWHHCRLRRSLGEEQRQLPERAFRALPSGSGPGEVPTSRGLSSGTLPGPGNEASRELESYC
Method: as §1, §2, §3, §4, §5, §6, §7, §8, §9, §10, §11, §12, §13, §14, §15

GIPR mutants [1] = target: T3, GIPR mutants (Homo sapiens, UniProt P48546, W209A); test: cAMP accumulation, single-point mutated GIPR; conditions: GIPR W209(ECL1)A; HEK-293T, 40 min, TR-FRET; mean ± S.E.M., n at least 3
T3 construct: expressed in transfected cells; host or cells: HEK-293T
T3 sequence (P48546 22-466 W209A): as the sequence (P48546 22-466) above, with W188A counted along it
Method: as §1, §2, §3, §4, §5, §6, §7, §8, §9, §10
(§16) and all values were normalized to that of the wild-type (WT).
(§17) Supplementary Fig. 5 Effects of receptor mutation on retatrutide-induced cAMP […]
(§18) accumulation. a-c, Signaling profiles of GLP-1R (a), GIPR (b) and GCGR (c) mutants. cAMP […]
as §12
(§19) GCGR expressing HEK-293T cells. cAMP levels were normalized to the maximum response […]
(§20) of the WT and dose-response curves were analyzed using a three-parameter logistic equation.
(§21) Data were generated and graphed as means ± S.E.M. of at least three independent experiments performed in quadruplicate.
(§22) (1 picture or pasted object on this page, not shown here)
(§23) Supplementary Ta b l e S 5 Effects of the ligand-binding pocket residue mutation on retatrutide- […]
(§24) induced cAMP signaling at GLP-1R, GIPR or GCGR. […]
(§25) cAMP levels were normalized to the maximum response of the wild-type (WT) and dose-response […]
(§26) curves were analyzed using a three-parameter logistic equation to obtain pEC50 and Emax values. The […]
(§27) experiments were carried out independently at least three times. Data shown are means ± S.E.M. One- […]
as §15
(§28) to incomplete curve fits. *P< 0.05, **P< 0.01, ***P< 0.001 and ****P<0.0001.

GIPR mutants [2] = target: T4, GIPR mutants (Homo sapiens, UniProt P48546, R131E); test: cAMP accumulation, single-point mutated GIPR; conditions: GIPR R131(1.33b)E
T4 construct: expressed in transfected cells; host or cells: HEK-293T
T4 sequence (P48546 22-466 R131E): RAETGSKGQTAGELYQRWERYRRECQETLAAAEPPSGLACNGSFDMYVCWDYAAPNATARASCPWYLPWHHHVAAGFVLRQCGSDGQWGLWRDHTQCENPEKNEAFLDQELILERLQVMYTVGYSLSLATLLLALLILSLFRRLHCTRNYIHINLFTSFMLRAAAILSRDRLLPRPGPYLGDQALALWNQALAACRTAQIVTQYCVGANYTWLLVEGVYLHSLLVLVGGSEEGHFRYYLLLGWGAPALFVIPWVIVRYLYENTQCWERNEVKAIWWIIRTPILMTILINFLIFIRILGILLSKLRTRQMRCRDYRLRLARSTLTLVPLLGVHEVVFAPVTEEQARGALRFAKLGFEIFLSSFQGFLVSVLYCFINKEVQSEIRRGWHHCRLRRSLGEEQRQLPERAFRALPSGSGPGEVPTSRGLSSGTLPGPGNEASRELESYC
Method: as §1, §2, §3, §4, §5, §6, §7, §8, §9, §10, §16, §17, §18, §12, §19, §20, §21, §22, §23, §24, §25, §26, §27, §15, §28

GIPR mutants [3] = target: T5, GIPR mutants (Homo sapiens, UniProt P48546, Y36A); test: cAMP accumulation, single-point mutated GIPR; conditions: GIPR Y36(ECD)A; HEK-293T, 40 min, TR-FRET; mean ± S.E.M., n at least 3
T5 construct: expressed in transfected cells; host or cells: HEK-293T
T5 sequence (P48546 22-466 Y36A): as the sequence (P48546 22-466) above, with Y15A counted along it
Method: as §1, §2, §3, §4, §5, §6, §7, §8, §9, §10, §16, §17, §18, §12, §19, §20, §21, §22, §23, §24, §25, §26, §27, §15, §28

GIPR mutants [4] = target: T6, GIPR mutants (Homo sapiens, UniProt P48546, Q285A); test: cAMP accumulation, single-point mutated GIPR; conditions: GIPR Q285(ECL2)A; HEK-293T, 40 min, TR-FRET; mean ± S.E.M., n at least 3
T6 construct: expressed in transfected cells; host or cells: HEK-293T
T6 sequence (P48546 22-466 Q285A): as the sequence (P48546 22-466) above, with Q264A counted along it
Method: as §1, §2, §3, §4, §5, §6, §7, §8, §9, §10, §16, §17, §18, §12, §19, §20, §21, §22, §23, §24, §25, §26, §27, §15, §28

GIPR mutants [5] = target: T7, GIPR mutants (Homo sapiens, UniProt P48546, P195K); test: cAMP accumulation, single-point mutated GIPR; conditions: GIPR P195(2.72b)K, relative to WT; pEC50 and Emax N.D. (incomplete curve fits)
T7 construct: expressed in transfected cells; host or cells: HEK-293T
T7 sequence (P48546 22-466 P195K): as the sequence (P48546 22-466) above, with P174K counted along it
Method: as §1, §2, §3, §4, §5, §6, §7, §8, §9, §10, §16, §17, §18, §12, §19, §20, §21, §22, §23, §24, §25, §26, §27, §15, §28

GIPR mutants [6] = target: T8, GIPR mutants (Homo sapiens, UniProt P48546, E354A); test: cAMP accumulation, single-point mutated GIPR; conditions: GIPR E354(6.53b)A; HEK-293T, 40 min, TR-FRET; mean ± S.E.M., n at least 3
T8 construct: expressed in transfected cells; host or cells: HEK-293T
T8 sequence (P48546 22-466 E354A): as the sequence (P48546 22-466) above, with E333A counted along it
Method: as §1, §2, §3, §4, §5, §6, §7, §8, §9, §10, §16, §17, §18, §12, §19, §20, §21, §22, §23, §24, §25, §26, §27, §15, §28

GIPR mutants [7] = target: T9, GIPR mutants (Homo sapiens, UniProt P48546, R289A); test: cAMP accumulation, single-point mutated GIPR; conditions: GIPR R289(ECL2)A, HEK-293T, 40 min, TR-FRET, mean ± S.E.M., n at least 3
T9 construct: expressed in transfected cells; host or cells: HEK-293T
T9 sequence (P48546 22-466 R289A): as the sequence (P48546 22-466) above, with R268A counted along it
Method: as §1, §2, §3, §4, §5, §6, §7, §8, §9, §10, §16, §17, §18, §12, §19, §20, §21, §22, §23, §24, §25, §26, §27, §15, §28

GIPR mutants [8] = target: T10, GIPR mutants (Homo sapiens, UniProt P48546, E288T); test: cAMP accumulation, single-point mutated GIPR; conditions: GIPR E288(45.52b)T, HEK-293T, 40 min, TR-FRET, mean ± S.E.M., n at least 3
T10 construct: expressed in transfected cells; host or cells: HEK-293T
T10 sequence (P48546 22-466 E288T): as the sequence (P48546 22-466) above, with E267T counted along it
Method: as §1, §2, §3, §4, §5, §6, §7, §8, §9, §10, §16, §17, §18, §12, §19, §20, §21, §22, §23, §24, §25, §26, §27, §15, §28

T1 sequence (P47871 26-477): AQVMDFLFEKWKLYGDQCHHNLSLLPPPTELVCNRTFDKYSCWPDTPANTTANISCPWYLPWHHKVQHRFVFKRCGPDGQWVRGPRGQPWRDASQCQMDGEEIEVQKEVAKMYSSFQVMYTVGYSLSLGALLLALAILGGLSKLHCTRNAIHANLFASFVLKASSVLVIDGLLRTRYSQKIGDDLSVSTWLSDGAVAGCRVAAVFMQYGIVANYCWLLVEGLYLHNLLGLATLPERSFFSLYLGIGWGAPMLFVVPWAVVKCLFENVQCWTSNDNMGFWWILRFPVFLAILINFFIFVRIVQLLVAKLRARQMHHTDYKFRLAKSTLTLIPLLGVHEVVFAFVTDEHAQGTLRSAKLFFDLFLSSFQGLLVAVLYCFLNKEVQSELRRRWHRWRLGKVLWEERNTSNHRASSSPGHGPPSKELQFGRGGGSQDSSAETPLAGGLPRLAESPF

## CC[C@H](C)[C@H](NC(=O)[C@H](Cc1ccccc1)NC(=O)[C@H](C)NC(=O)C(C)(C)NC(=O)[C@H](CCC(N)=O)NC(=O)[C@H](C)NC(=O)[C@H](CCCCNC(=O)COCCOCCNC(=O)CC[C@H](NC(=O)CCCCCCCCCCCCCCCCCCC(=O)O)C(=O)O)NC(=O)[C@H](CCCCN)NC(=O)[C@H](CC(=O)O)NC(=O)[C@H](CC(C)C)NC(=O)[C@](C)(CC(C)C)NC(=O)[C@@H](NC(=O)[C@H](CO)NC(=O)[C@H](Cc1ccc(O)cc1)NC(=O)[C@H](CC(=O)O)NC(=O)[C@H](CO)NC(=O)[C@@H](NC(=O)[C@H](Cc1ccccc1)NC(=O)[C@@H](NC(=O)CNC(=O)[C@H](CCC(N)=O)NC(=O)C(C)(C)NC(=O)[C@@H](N)Cc1ccc(O)cc1)[C@@H](C)O)[C@@H](C)O)[C@@H](C)CC)C(=O)N[C@@H](CCC(=O)O)C(=O)N[C@@H](Cc1ccc(O)cc1)C(=O)N[C@@H](CC(C)C)C(=O)N[C@@H](CC(C)C)C(=O)N[C@@H](CCC(=O)O)C(=O)NCC(=O)NCC(=O)N1CCC[C@H]1C(=O)N[C@@H](CO)C(=O)N[C@@H](CO)C(=O)NCC(=O)N[C@@H](C)C(=O)N1CCC[C@H]1C(=O)N1CCC[C@H]1C(=O)N1CCC[C@H]1C(=O)N[C@@H](CO)C(N)=O [retatrutide]
GCGR; GCGR WT, at least 3 independent experiments in quadruplicate
  EC50: 7.08 pM
GCGR; n at least 3
  Emax ± S.E.M. (% WT): 100.00 ± 1.46 % WT
GIPR; GIPR WT, at least 3 independent experiments in quadruplicate
  EC50: 2.29 pM
GIPR; n at least 3
  Emax ± S.E.M. (% WT): 100.00 ± 2.84 % WT
GIPR mutants [1]
  EC50: 2 pM
  Emax ± S.E.M. (% WT): 100.17 ± 3.21 % WT
GIPR mutants [2]; relative to WT, modestly
  change of retatrutide potency by mutation: decreased
GIPR mutants [2]; HEK-293T, 40 min, TR-FRET, mean ± S.E.M., n at least 3
  Emax ± S.E.M. (% WT): 98.44 ± 3.88 % WT
GIPR mutants [2]; HEK-293T, 40 min, TR-FRET, mean ± S.E.M., n at least 3, **P < 0.01
  EC50: 9.33 pM
GIPR mutants [3]
  EC50: 3.09 pM
  Emax ± S.E.M. (% WT): 99.10 ± 3.86 % WT
GIPR mutants [4]
  EC50: 1.74 pM
  Emax ± S.E.M. (% WT): 100.34 ± 4.02 % WT
GIPR mutants [5]
  change of GIPR-mediated cAMP accumulation by mutation: markedly decreased
GIPR mutants [6]
  EC50: 5.89 pM
  Emax ± S.E.M. (% WT): 99.43 ± 4.28 % WT
GIPR mutants [7]
  Emax ± S.E.M. (% WT): 98.56 ± 4.01 % WT
GIPR mutants [7]; ***P < 0.001
  EC50: 12.6 pM
GIPR mutants [8]
  Emax ± S.E.M. (% WT): 100.81 ± 2.93 % WT
GIPR mutants [8]; **P < 0.01
  EC50: 8.91 pM
